Results as given in patent US7632972B2, “Compounds and methods for treatment of cancer and modulation of programmed cell death for melanoma and other cancer cells” (The Board of Trustees of the University of Illionis, priority 2003, dated 2009).
Entries after “also recorded” stand apart in the source; their conditions may differ.

Legend:
cell cycle = assay: Cell cycle analysis, DNA content by flow cytometry of propidium iodide stained cells; format: cell-based; conditions: position of cell cycle arrest
Method: Cell cycle analysis and NCl screen. The data in FIG. 21 and Table 11 show potential structure-activity trends. Several amides derived from the triphenylacetic acid (TPA) and triphenylpropionic acid (TPP) building blocks induced a high degree of cell death in this assay. Experiments were conducted to determine the position on the cell cycle at which these compounds arrest cell growth. This is typically determined by assessing the DNA content as measured flow cytometry analysis of cells stained by propidium iodide. Flow cytometry data is presented in FIG. 22, along with control data. […] One of the active apoptotic inducers identified from this combinatorial library that was not derived from the TPA or TPP building blocks (x) also arrests cell growth in the G2/M phase as indicated by the data in FIG. 22B. However, compounds containing the triphenylacetic acid and triphenylpropionic acid building blocks all arrest cell growth in the G1 phase (FIG. 22C and FIG. 22D). Here compounds x and y correspond to compounds Z2 and Z3.

U-937 cells [1] = assay: Analysis of mitochondria depolarization by flow cytometry (JC-9 dye); format: cell-based, human
Method: Further experiments assessed whether the observed death from 12-D, 13-D, and 15-D was due to apoptosis or necrosis.
Analysis of Mitochondria Depolarization by Flow Cytometry: The depolarization of the mitochondrial membrane was measured by the fluorescence emitted by the JC-9 dye (Molecular Probes, Eugene Oreg.). 100 μM of 13-D or 10 μM etoposide in 1 μL of EtOH were added to cell culture flasks containing 50 mL of 10×10^6 U-937 cells/mL. […] 10 μg of the JC-9 dye was added to 1×10^6 cells in 1 mL and incubated at room temperature for 10 min. Cells were washed twice with PBS and resuspended in a final volume of 500 μL PBS. The fluorescence intensity of each cell was determined by flow cytometry at 525 nm (channel 1 green) and 675 nm (channel 4 red). 50,000 cells were analyzed in each experiment. The data was then analyzed using Summit Software (Cytomation, Fort Collins Colo.) and the number of cells within the upper left region, viable cells, was determined.
Apoptotic assays. To determine whether the observed death was due to apoptosis or necrosis, several apoptotic hallmarks were examined. Thus early stage (mitochondrial membrane depolarization), middle stage (caspase-3 like activation, PARP-1 cleavage) and late stage (chromatin condensation, phosphatidylserine exposure, membrane blebbing) biochemical events were monitored. The depolarization of mitochondrial membranes facilitates the release of pro-apoptotic proteins such as cytochrome c and AIF (apoptosis inducing factor) from the mitochondria into the cytosol. Several dyes, including JC-9, have been developed that provide a sensitive readout on this process. […] The release of pro-apoptotic stimuli from the mitochondria initiates a cascade of events that ultimately results in the activation of the “executioner” caspases, typically caspase-3 and caspase-7. The caspase-3-like activity of the cells can be monitored with peptidic substrates. […] PARP-1 cleavage. A final event in apoptosis is the exposure of phosphatidylserine on the outer leaflet of the cell membrane; this event allows for recognition of apoptotic cells by phagocytes, ultimately leading to the engulfment of the apoptotic cell and the recycling of the various cellular components.

U-937 cells [2] = assay: Microscopy of treated cells; format: cell-based, human; conditions: 100 μM
Method: Compound 13-D was added to make a final concentration of 100 μM. Pictures of the cells were taken at various times using a Carl Zeiss confocal microscope (Carl Zeiss, Thornwood N.Y.). Picture at 100×; FIG. 9B. Picture at 100×; FIG. 10A. Picture at 400×; FIG. 10B. Picture at 400×; FIG. 10C. Picture at 400×; and FIG. 11. Picture at 200×.

[3] = test system: caspase-3 like protease activity in U-937 cells; assay: Caspase-3 activity assay (Ac-DEVD-pNA cleavage by cell lysates); format: cell-based, human; conditions: 100 μM
Method: Caspase-3 Activity Assay: The amount of caspase-3 like protease activity was determined by the amount of Ac-DEVD-pNA (N-acetyl-Asp-Glu-Val-Asp p-nitroanilide) cleaved per minute by cell lysates. To accomplish this, 100 μM of 13-D was added to cell culture flasks containing 50 mL of 10×10^6 U-937 cells/mL at 72, 48, 36, 24, 12 and 0 hours before harvesting. Cells were harvested by centrifugation, counted and diluted with RPMI 1640 media to a concentration of 4×10^6 cells/mL. 100 μL of the diluted cells were added to the wells of a 96-well plate in quadruplicate. The plate was then spun at 1000×g for 5 minutes to pellet the cells. […] The slope of the linear portion for each compound was then determined and any cleavage of the substrate in the control wells was subtracted out. The amount of Ac-DEVD-pNA cleaved in pmol/min was then calculated and plotted.
Apoptotic assays. […] Thus early stage (mitochondrial membrane depolarization), middle stage (caspase-3 like activation, PARP-1 cleavage) and late stage (chromatin condensation, phosphatidylserine exposure, membrane blebbing) biochemical events were monitored. […] Several dyes, including JC-9, have been developed that provide a sensitive readout on this process. […] The caspase-3-like activity of the cells can be monitored with peptidic substrates. […]

splenocytes = assay: Splenocyte toxicity assay (concanavalin A stimulated, MTS/PMS); conditions: 72 h
Method: For this experiment, the spleen from a euthanized mouse was harvested, and the splenocytes isolated.
Splenocyte Toxicity Assay: Splenocytes were isolated from the spleen of a 7-month old male C57Black/6 mouse and suspended in 1 mL RPMI 1640+10% FBS+2.5 μg/mL concanavalin A. These cells were counted and diluted so that 2.5×10^5 cells were seeded in to each well containing a total of 200 μL of media. […] 1 μL of EtOH was added to separate control wells. After 72 hours of incubation, 20 μL of the MTS/PMS CellTiter 96 Cell Proliferation Assay reagent (Promega, Madison Wis.) was added to each well. The plates were incubated at 37° C. for approximately two hours until the colored product formed and the absorbance was then measured at 490 nm in a Spectra Max Plus 384 plate reader (Molecular Devices, Sunnyvale Calif.).

U-937 cells [4] = assay: High-throughput cell death assay on library members (MTS/PMS); format: cell-based, human; conditions: library members at 100 μM, 24 hours
T cells = format: cell-based, mouse
From the text: Erythrocytes were selectively lysed and the T cells were highly enriched by using a mouse erythrocyte lysing kit and a mouse T cell enrichment column (R & D Systems, Minneapolis Minn.). FITC labeled anti-TCR antibodies were used to determine the purity of T cells in pre- and post-column samples. The T cells were enriched from approximately 35% to 90% of the total cell population (see FIG. 6A, 6B below). […] These cells were either stimulated to grow (by addition of ConA to a concentration of 2.5 μg/mL) or left untreated. […] After the 72 hours of incubation, 200 μL of cells were diluted in 300 μL PBS. Propidium iodide was then added to a concentration of 1 μg/mL. Cells were then incubated at room temperature for 5 minutes and analyzed by flow cytometry. The fluorescene intensity of each cell was determined at 620 nm (channel 3) and at least 50,000 cells were analyzed for each experiment (FIG. 7A, 7B, below). The data was then analyzed using Summit Software (Cytomation, Fort Collins Colo.) and the number of viable cells was determined. Non-concanavalin A stimulated T cells were also treated with 13-D, and viable cells in these samples were determined by PI staining (as above).
FIG. 7A illustrates flow cytometry data from Concanavalin A stimulated T cells; region R1 indicates 86.4% viable cells. […]

in vitro = format: cell-based, human; conditions: human

| SMILES | cell cycle arrest (cell cycle) | observed death due to apoptosis or necrosis (U-937 cells [1]) | cell population in which apoptosis is induced (JC-9 staining) (U-937 cells [1]; 100 μM, 72 h) | microscopy, evidence of apoptosis (U-937 cells [2]) | caspase-3 activity [3] | toxicity towards actively dividing splenocytes (splenocytes; 500 μM) | IC50 (splenocytes; Mus musculus, Splenocyte, read-out: IC50 for non-cancerous splenocytes) [µM] | Induction of death in U-937 cells (percentages of cell death) (U-937 cells [4]) [%] | viable cells, treated versus non-treated control cells (T cells) | IC50 at 72 h (in vitro) [µM] |
| --- | --- | --- | --- | --- | --- | --- | --- | --- | --- | --- |
| CC(=O)O[C@H]1C(=O)[C@@]2(C)[C@H]([C@H](OC(=O)c3ccccc3)[C@]3(O)C[C@H](OC(=O)[C@H](O)[C@@H](NC(=O)c4ccccc4)c4ccccc4)C(C)=C1C3(C)C)[C@]1(OC(C)=O)CO[C@@H]1C[C@@H]2O [Taxol] | mitotic (M) phase arrest | – | – | – | – | – | – | – | – | – |
| COc1cc(/C=C/C(=O)NC[C@@H](O)c2ccc(O)cc2)ccc1O [Compound 13-D, N-[2-(S)-Hydroxy-2-(4-hydroxy-phenyl)-ethyl]-3-(4-hydroxy-3-methoxy-phenyl)-acrylamide] | – | induced apoptosis | over 70% | membrane blebbing and cell shrinkage | strong induction of caspase-3 activity | virtually no death; also recorded: virtually no toxicity | > 1000 | 87 | no difference was observed | 44 |
